Values of other authors as cited in US20220387439A1, “ANTI-INFLAMMATORY PHARMACEUTICAL COMPOSITION COMPRISING PROBIOTICS AND ANTIBIOTICS, AND METHOD USING SAME” (priority 2019, published 2022).

Test system: patient with otitis media
Settings: Patient 1, otitis media for more than several years; antibiotics taken at other hospitals

**Q.** With `N[C@@H](C(=O)N[C@@H]1C(=O)N2C(C(=O)O)=C(Cl)CS[C@H]12)c1ccccc1` [cefaclor] as the compound, how does the “treatment effect of antibiotics taken earlier” value read?
**A.** no treatment effect
